In assay [1] the test system is rat pheochromocytoma cells (PC12). In words: cGMP accumulation in PC12 cells (nitric oxide-mediated activity). It is filed as cell-based. To be noted: for EC50: Rattus norvegicus, PC-12, 0.75 h, 30 μM YC-1, read-out: EC50 (effective concentration producing half maximal response), cGMP accumulation. Here is the method: The formation of cyclic guanosine-3′,5′ monophosphate (cGMP) in cells in the eye is involved in the regulation of aqueous humor flow. Thus, elevation of cGMP levels leads to decreased aqueous humor production and reduction of intraocular pressure.
We measured the effects of test drugs on cGMP formation in a well established cell assay.
Undifferentiated pheochromocytoma cells (PC12) were used. The monolayer cells were incubated for 45 min in Hank's Balanced Salt Solution enriched with 10 mM Hepes, 5 mM MgCl2 and 0.05% ascorbic acid at the final pH of 7.4 and containing 100 μM of the phosphodiesterase inhibitor, isomethyl-butyl-xanthine (IBMX), 30 μM of the guanylyl cyclase […], YC-1, and the test drugs at the appropriate concentration. The reaction was terminated by the removal of the incubating buffer followed by the addition of […] of 100% ice-cold ethanol. The plate was then dried under hot air steam and the residue dissolved, extracted and analysed using commercially available cyclic cGMP enzyme immunoassay kit.

Assay [2] concerns aqueous humor cGMP, cAMP and NOx. In words: cGMP, cAMP and NOx content of aqueous humor in carbomer-treated rabbits. It is filed as in vivo, rabbit. Conditions: for NOx / cAMP / cGMP: aqueous humor; for NOx in intraocular aqueous humor (in words) / cGMP in intraocular aqueous humor (in words) / intraocular cAMP (in words): over the 4-week treatment. Here is the method: (§1) Male NZW rabbits ranging from 3-5 kgs of body weight were used in this study. Briefly, the ability of Latanoprost nitroderivative (compound 4, EXAMPLE 3) at reducing intraocular pressure (IOP) was tested in animals previously treated with intracameral injection of 0.25% carbomer solution installation until after a stable increase of the intraocular pressure was reached. In this particular study, test drugs were administered to one eye with the dosage schedule of 1 drop/eye/day for 5 days a week with a physiologic solution containing 0.005% of control or test compounds. The IOP was monitored 3 h after drug application, two-three times weekly for a total of 4 weeks. This concentration was chosen as it reflects that of latanoprost isopropyl ester currently used in clinic to treat the increase of IOP observed in glaucoma patients. Furthermore, at each visit, about 200 μl of aqueous humor was collected using a 30 gauge needle from both eyes under lidocaine anesthesia for further biochemical evaluation of cGMP, camp and nitrite/nitrate contents.

In assay [3] the test system is carbomer-evoked increase in IOP. In words: Intraocular pressure in carbomer-treated rabbits. In kind it is in vivo, rabbit. As for the experimental part: as §1
[4] abbreviates: 45 min, 100 μM IBMX, 30 μM YC-1.
[5] abbreviates: Day 2, 0.005% solution, 1 drop/eye/day, 3 h after application.
Where [6] appears, read: Day 7, 0.005% solution, 1 drop/eye/day, 3 h after application.
Setting [7] is: Day 10, 0.005% solution, 1 drop/eye/day, 3 h after application.
The mark [8] stands for this setting: Day 15, 0.005% solution, 1 drop/eye/day, 3 h after application.
Setting [9] is: Day 17, 0.005% solution, 1 drop/eye/day, 3 h after application.
Where [10] appears, read: Day 23, 0.005% solution, 1 drop/eye/day, 3 h after application.
Setting [11] is: Day 25, 0.005% solution, 1 drop/eye/day, 3 h after application.
[12] abbreviates: Pre-treatment (baseline after intracameral 0.25% carbomer).

Data on five molecules can be found in patent US8058467B2, “Prostaglandin derivatives” (Nicox S.A., priority 2004, dated 2011).

As to `O=C(CCC/C=C\C[C@@H]1[C@@H](CC[C@@H](O)CCc2ccccc2)[C@H](O)C[C@@H]1O)OCCCCO[N+](=O)[O-]` (relative stereo) [Compound 1, [1R-[1α(Z),2α(R*),3α,5α]]-7-[3,5-dihydroxy-2-(3-hydroxy-5-phenylpentyl)cyclopentyl]-5-heptenoic acid 4-(nitrooxy)butyl ester], the “Emax (maximum effect), cGMP accumulation” value in assay [1] (setting [4]) is 290 % over vehicle. Also, the EC50 in assay [1] (45 min, 100 μM IBMX) stood at 2400 nM.
Consider `O=C(CCC/C=C\C[C@@H]1[C@@H](CC[C@@H](O)CCc2ccccc2)[C@H](O)C[C@@H]1O)Oc1cccc(CO[N+](=O)[O-])c1` (relative stereo) [Compound 4, [1R-[1α(Z),2β(R*),3α,5α]]-7-[3,5-dihydroxy-2-(3-hydroxy-5-phenylpentyl)cyclopentyl]-5-heptenoic acid 3-(nitrooxymethyl)phenyl ester], for which the NOx in assay [2] (I Week) was 22 ± 2 nmol/mg prot; in assay [2] (II Week) it was 25 ± 3 nmol/mg prot; in assay [2] (III Week) it was 26 ± 3 nmol/mg prot; in assay [2] (IV Week) it was 28 ± 3 nmol/mg prot; in assay [2] (Pre-treatment), 17 ± 1 nmol/mg prot. For the same molecule, the cAMP in assay [2] (I Week) turned out to be 600 ± 25 fmol/mg prot; in assay [2] (II Week) it was 650 ± 31 fmol/mg prot; in assay [2] (III Week), 680 ± 28 fmol/mg prot; in assay [2] (IV Week) it was 660 ± 22 fmol/mg prot; in assay [2] (Pre-treatment), 520 ± 20 fmol/mg prot. For the same molecule, the cGMP in assay [2] (I Week) is listed as 102 ± 5 fmol/mg prot; in assay [2] (II Week) it was 125 ± 5 fmol/mg prot; in assay [2] (III Week), 140 ± 5 fmol/mg prot; in assay [2] (IV Week) it was 160 ± 5 fmol/mg prot; in assay [2] (Pre-treatment) it was 88 ± 5 fmol/mg prot. The “NOx in intraocular aqueous humor (in words)” value in assay [2] was “increased”. Also, the “cGMP in intraocular aqueous humor (in words)” value in assay [2] was “increased”. For the same molecule, the “intraocular cAMP (in words)” value in assay [2] is listed as “remained unaltered”. For the same molecule, the IOP in assay [3] (setting [5]) turned out to be 31 ± 1 mmHg; in assay [3] (setting [6]), 26 ± 1 mmHg; in assay [3] (setting [7]) it was 20 ± 1 mmHg; in assay [3] (setting [8]), 18 ± 2 mmHg; in assay [3] (setting [9]) it was 16 ± 1 mmHg; in assay [3] (setting [10]), 15 ± 1 mmHg. Further, the IOP in assay [3] (setting [11]) turned out to be 14 ± 1 mmHg; in assay [3] (setting [12]) it was 42 ± 2 mmHg. Further, the “decrease of intraocular pressure” value is reported as “over 65%” in assay [3] (by the end of the study (4 weeks)) and “about 50%” in assay [3] (within 7 days of repeated treatments). For the same molecule, the “Emax (maximum effect), cGMP accumulation” value in assay [1] (setting [4]) came to 450 % over vehicle. Further, the EC50 in assay [1] (45 min, 100 μM IBMX) stood at 4400 nM.
For `COc1cc(/C=C/C(=O)OCCCCO[N+](=O)[O-])ccc1OC(=O)CCC/C=C\C[C@@H]1[C@@H](CC[C@@H](O)CCc2ccccc2)[C@H](O)C[C@@H]1O` (relative stereo) [Compound 11, [1R-[1α(Z), 2β(R*),3α,5α]]-7-[3,5-dihydroxy-2-(3-hydroxy-5-phenylpentyl)cyclopentyl]-5-heptenoicacid[2-methoxy-4-[2-propenoyloxy(4-nitrooxybutyl)]]phenyl ester], in assay [1] (setting [4]), the “Emax (maximum effect), cGMP accumulation” value is on record as 480 % over vehicle. For the same molecule, the EC50 in assay [1] (45 min, 100 μM IBMX) came to 1500 nM.
Turning to `CC(C)OC(=O)CCC/C=C\C[C@@H]1[C@@H](CC[C@@H](O)CCc2ccccc2)[C@H](O)C[C@@H]1O` [Latanoprost isopropyl ester, reference compound], the NOx in assay [2] (I Week) was 18 ± 2 nmol/mg prot; in assay [2] (II Week), 18 ± 1 nmol/mg prot; in assay [2] (III Week), 19 ± 2 nmol/mg prot; in assay [2] (IV Week), 19 ± 2 nmol/mg prot; in assay [2] (Pre-treatment), 16 ± 1 nmol/mg prot. Besides, the cAMP was 550 ± 22 fmol/mg prot in assay [2] (I Week); 600 ± 30 fmol/mg prot in assay [2] (II Week); 620 ± 31 fmol/mg prot in assay [2] (III Week); 625 ± 31 fmol/mg prot in assay [2] (IV Week); 510 ± 18 fmol/mg prot in assay [2] (Pre-treatment). Besides, the cGMP was 88 ± 6 fmol/mg prot in assay [2] (I Week); 98 ± 6 fmol/mg prot in assay [2] (II Week); 99 ± 6 fmol/mg prot in assay [2] (III Week); 100 ± 6 fmol/mg prot in assay [2] (IV Week); 87 ± 6 fmol/mg prot in assay [2] (Pre-treatment). The “NOx in intraocular aqueous humor (in words)” value in assay [2] is on record as “did not significantly affect”. Besides, the “cGMP in intraocular aqueous humor (in words)” value in assay [2] is “did not significantly affect”. Moreover, the “intraocular cAMP (in words)” value in assay [2] is reported as “did not significantly affect”. The “change of intraocular pressure (in words)” value in assay [3] (0.005% solution, 1 drop/eye/day, 4 weeks) was “nor its isopropyl derivative elicited any appreciable change”. For the same molecule, the IOP is 34 ± 2 mmHg in assay [3] (setting [5]); 33 ± 3 mmHg in assay [3] (setting [6]); 30 ± 1 mmHg in assay [3] (setting [7]); 31 ± 2 mmHg in assay [3] (setting [8]); 30 ± 2 mmHg in assay [3] (setting [9]); 32 ± 2 mmHg in assay [3] (setting [10]). For the same molecule, the figures for the IOP in assay [3] (setting [11]) and in assay [3] (setting [12]) were 30 ± 2 mmHg and 37 ± 2 mmHg, respectively.
Turning to `CC(C)OC(=O)CCC/C=C\C[C@@H]1[C@@H](CC[C@@H](O)CCc2ccccc2)[C@H](O)C[C@@H]1O` [Latanoprost, reference compound], the “cGMP accumulation (in words)” value in assay [1] (1-50 μM) is given as “not shared”. In addition, in assay [1] (setting [4]), the “EC50 (effective concentration producing half maximal response), cGMP accumulation” value was “Not effective” and the “Emax (maximum effect), cGMP accumulation” value is recorded as “Not effective”.
